Experimental data published in US8697739B2, “Bicyclic acetyl-CoA carboxylase inhibitors and uses thereof” (Novartis AG, priority 2010, dated 2014).

biological target: T1, human acetyl-CoA carboxylase 2 (ACC2) (Homo sapiens, UniProt O00763); assay: Acetyl-CoA carboxylase enzyme assay (malonyl-CoA formation by LC/MS/MS); assay type: biochemical; settings: recombinant human ACC2 (aa 144-2458); read-out: IC50 ACC2
T1 construct: The cDNA encoding amino acids 144 to 2458 of human acetyl-CoA carboxylase 2; made in house; host or cells: Sf9 insect cells (baculovirus, pFastBac1)
Outline: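 Malonyl-CoA formation was read by LC/MS/MS MRM against a [13C3]-malonyl-CoA internal standard, after acetic acid quench. The enzyme was baculovirus/Sf9-expressed human ACC2 residues 144–2458, given 15 minutes room-temperature compound preincubation in HEPES pH 7.5 buffer with MgCl2, citrate and DTT. Substrate solution held 50 μM acetyl-CoA, 120 μM ATP and 2 mM KHCO3.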

T1 sequence (O00763 144-2458): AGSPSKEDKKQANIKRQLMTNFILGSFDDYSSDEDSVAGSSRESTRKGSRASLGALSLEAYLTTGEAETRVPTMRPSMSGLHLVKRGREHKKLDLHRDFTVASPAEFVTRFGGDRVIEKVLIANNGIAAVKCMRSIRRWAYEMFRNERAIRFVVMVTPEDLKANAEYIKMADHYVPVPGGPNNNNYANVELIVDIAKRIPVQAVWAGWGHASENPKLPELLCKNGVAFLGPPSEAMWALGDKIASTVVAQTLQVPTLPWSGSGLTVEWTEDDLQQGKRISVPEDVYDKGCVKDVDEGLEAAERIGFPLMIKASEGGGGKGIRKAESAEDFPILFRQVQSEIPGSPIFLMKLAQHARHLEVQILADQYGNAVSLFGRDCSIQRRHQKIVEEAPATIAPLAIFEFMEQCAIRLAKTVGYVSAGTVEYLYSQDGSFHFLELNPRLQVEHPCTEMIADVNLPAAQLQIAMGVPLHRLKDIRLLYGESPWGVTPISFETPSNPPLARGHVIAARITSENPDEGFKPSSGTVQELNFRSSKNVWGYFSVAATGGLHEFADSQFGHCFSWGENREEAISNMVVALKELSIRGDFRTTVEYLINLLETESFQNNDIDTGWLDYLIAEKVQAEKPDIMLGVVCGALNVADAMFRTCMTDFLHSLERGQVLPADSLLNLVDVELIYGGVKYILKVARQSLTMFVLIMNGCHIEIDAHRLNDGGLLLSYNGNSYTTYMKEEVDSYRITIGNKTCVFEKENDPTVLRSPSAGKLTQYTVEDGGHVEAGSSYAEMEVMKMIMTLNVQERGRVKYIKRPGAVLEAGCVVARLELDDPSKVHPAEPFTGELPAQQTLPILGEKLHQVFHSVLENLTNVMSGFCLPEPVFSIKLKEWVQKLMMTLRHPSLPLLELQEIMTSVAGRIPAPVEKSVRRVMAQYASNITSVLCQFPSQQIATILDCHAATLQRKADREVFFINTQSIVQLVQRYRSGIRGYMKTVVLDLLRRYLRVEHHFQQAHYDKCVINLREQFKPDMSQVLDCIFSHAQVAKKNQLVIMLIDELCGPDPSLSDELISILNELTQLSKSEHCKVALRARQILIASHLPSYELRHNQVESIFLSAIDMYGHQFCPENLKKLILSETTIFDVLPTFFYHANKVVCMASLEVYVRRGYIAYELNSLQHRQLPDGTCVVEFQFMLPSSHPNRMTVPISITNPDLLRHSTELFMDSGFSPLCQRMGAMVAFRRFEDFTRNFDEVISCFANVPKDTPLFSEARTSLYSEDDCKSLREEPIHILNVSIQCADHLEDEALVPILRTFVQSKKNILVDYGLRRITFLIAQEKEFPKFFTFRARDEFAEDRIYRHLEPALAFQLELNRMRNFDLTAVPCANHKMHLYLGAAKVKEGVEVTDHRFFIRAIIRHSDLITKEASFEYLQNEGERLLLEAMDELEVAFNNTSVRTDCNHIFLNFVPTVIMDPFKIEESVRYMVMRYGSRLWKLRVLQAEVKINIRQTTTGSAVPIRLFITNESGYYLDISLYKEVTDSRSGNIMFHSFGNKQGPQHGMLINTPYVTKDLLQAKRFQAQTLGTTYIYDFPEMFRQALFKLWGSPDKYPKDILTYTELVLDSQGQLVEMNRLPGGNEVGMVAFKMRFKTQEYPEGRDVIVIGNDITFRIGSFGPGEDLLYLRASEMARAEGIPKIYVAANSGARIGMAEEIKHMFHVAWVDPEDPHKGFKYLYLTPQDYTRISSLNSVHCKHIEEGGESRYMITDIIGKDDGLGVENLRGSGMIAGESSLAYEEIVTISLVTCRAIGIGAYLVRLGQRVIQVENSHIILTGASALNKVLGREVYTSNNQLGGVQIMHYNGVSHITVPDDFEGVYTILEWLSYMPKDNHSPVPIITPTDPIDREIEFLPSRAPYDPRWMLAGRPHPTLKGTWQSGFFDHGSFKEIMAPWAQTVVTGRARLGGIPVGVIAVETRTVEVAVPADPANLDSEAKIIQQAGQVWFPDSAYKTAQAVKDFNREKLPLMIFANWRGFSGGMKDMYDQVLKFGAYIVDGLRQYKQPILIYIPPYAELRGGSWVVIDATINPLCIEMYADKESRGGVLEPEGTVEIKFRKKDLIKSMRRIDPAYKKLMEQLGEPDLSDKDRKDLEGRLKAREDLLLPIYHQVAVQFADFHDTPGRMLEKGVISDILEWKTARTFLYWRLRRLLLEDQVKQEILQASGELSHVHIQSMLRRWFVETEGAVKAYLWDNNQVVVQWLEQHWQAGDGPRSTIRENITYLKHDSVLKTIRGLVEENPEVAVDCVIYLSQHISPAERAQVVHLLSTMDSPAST

Row | Compound | IC50
1 | COc1ccc(-c2cc3ccc(S(=O)(=O)N[C@H]4CC[C@H](C(=O)N[C@@H](CO)C5CC5)CC4)cc3n2C)cc1 [Example 445, (1r,4R)-N-((R)-1-cyclopropyl-2-hydroxyethyl)-4-(2-(4-methoxyphenyl)-1-methyl-1H-indole-6-sulfonamido)cyclohexanecarboxamide] | 15 nM
2 | Cn1c(C2CC2)cc2ccc(S(=O)(=O)N[C@H]3CC[C@H](C(=O)N[C@@H](CO)C4CC4)CC3)cc21 [Example 446, (1r,4R)-4-(2-cyclopropyl-1-methyl-1H-indole-6-sulfonamido)-N-((R)-1-cyclopropyl-2-hydroxyethyl)cyclohexanecarboxamide] | 365 nM
3 | COCCOc1ccc(-c2cc3ccc(S(=O)(=O)N[C@H]4CC[C@H](C(=O)N5CCOC[C@@H]5C(C)C)CC4)cc3n2C)cc1 [Example 447, N-((1S,4r)-4-((S)-3-isopropylmorpholine-4-carbonyl)cyclohexyl)-2-(4-(2-methoxyethoxy)phenyl)-1-methyl-1H-indole-6-sulfonamide] | 25 nM
4 | COCCOc1ccc(-c2cc3ccc(S(=O)(=O)N[C@H]4CC[C@H](C(=O)N5CCOC[C@@H]5C)CC4)cc3n2C)cc1 [Example 448, 2-(4-(2-methoxyethoxy)phenyl)-1-methyl-N-((1S,4r)-4-((S)-3-methylmorpholine-4-carbonyl)cyclohexyl)-1H-indole-6-sulfonamide] | 65 nM
5 | COCCOc1ccc(-c2cc3ccc(S(=O)(=O)N[C@H]4CC[C@H](C(=O)N[C@H](CO)C5CC5)CC4)cc3n2C)cc1 [Example 449, (1r,4S)-N-((S)-1-cyclopropyl-2-hydroxyethyl)-4-(2-(4-(2-methoxyethoxy)phenyl)-1-methyl-1H-indole-6-sulfonamido)cyclohexanecarboxamide] | 75 nM
6 | COCCOc1ccc(-c2cc3ccc(S(=O)(=O)N[C@H]4CC[C@H](C(=O)N5CCOC(C)(C)C5)CC4)cc3n2C)cc1 [Example 450, N-((1r,4r)-4-(2,2-dimethylmorpholine-4-carbonyl)cyclohexyl)-2-(4-(2-methoxyethoxy)phenyl)-1-methyl-1H-indole-6-sulfonamide] | 130 nM
7 | COCCOc1ccc(-c2cc3ccc(S(=O)(=O)N[C@H]4CC[C@H](C(=O)N5CCC[C@@H]5C(C)(C)O)CC4)cc3n2C)cc1 [Example 451, N-((1R,4r)-4-((R)-2-(2-hydroxypropan-2-yl)pyrrolidine-1-carbonyl)cyclohexyl)-2-(4-(2-methoxyethoxy)phenyl)-1-methyl-1H-indole-6-sulfonamide] | 80 nM
8 | COCCOc1ccc(-c2cc3ccc(S(=O)(=O)N[C@H]4CC[C@H](C(=O)N[C@H](C)c5ccc(F)cc5)CC4)cc3n2C)cc1 [Example 452, (1r,4R)-N-((R)-1-(4-fluorophenyl)ethyl)-4-(2-(4-(2-methoxyethoxy)phenyl)-1-methyl-1H-indole-6-sulfonamido)cyclohexanecarboxamide] | 10 nM
9 | COCCOc1ccc(-c2cc3ccc(S(=O)(=O)N[C@H]4CC[C@H](C(=O)N[C@H](C)C(F)(F)F)CC4)cc3n2C)cc1 [Example 453, (1r,4R)-4-(2-(4-(2-methoxyethoxy)phenyl)-1-methyl-1H-indole-6-sulfonamido)-N-((R)-1,1,1-trifluoropropan-2-yl)cyclohexanecarboxamide] | 165 nM
10 | COc1ccc(-c2cc3ccc(S(=O)(=O)N[C@H]4CC[C@H](C(=O)N5CCOC[C@@H]5C5CC5)CC4)cc3n2C)cc1 [Example 454, N-((1S,4r)-4-((S)-3-cyclopropylmorpholine-4-carbonyl)cyclohexyl)-2-(4-methoxyphenyl)-1-methyl-1H-indole-6-sulfonamide] | < 10 nM
11 | COCc1ccc(-c2cc3ccc(S(=O)(=O)N[C@H]4CC[C@H](C(=O)N5CCOC[C@@H]5C5CC5)CC4)cc3[nH]2)cc1 [Example 455, N-((1S,4r)-4-((S)-3-cyclopropylmorpholine-4-carbonyl)cyclohexyl)-2-(4-(methoxymethyl)phenyl)-1H-indole-6-sulfonamide] | < 10 nM
12 | COCc1ccc(-c2cc3ccc(S(=O)(=O)N[C@H]4CC[C@H](C(=O)N5CCOC[C@@H]5C5CC5)CC4)cc3n2C)cc1 [Example 456, N-((1S,4r)-4-((S)-3-cyclopropylmorpholine-4-carbonyl)cyclohexyl)-2-(4-(methoxymethyl)phenyl)-1-methyl-1H-indole-6-sulfonamide] | < 10 nM
13 | COCCc1ccc(-c2cc3ccc(S(=O)(=O)N[C@H]4CC[C@H](C(=O)N5CCOC[C@@H]5C5CC5)CC4)cc3n2C)cc1 [Example 457, N-((1S,4r)-4-((S)-3-cyclopropylmorpholine-4-carbonyl)cyclohexyl)-2-(4-(2-methoxyethyl)phenyl)-1-methyl-1H-indole-6-sulfonamide] | < 10 nM
14 | COCCc1ccc(-c2cc3ccc(S(=O)(=O)N[C@H]4CC[C@H](C(=O)N5CCOC[C@@H]5C(C)C)CC4)cc3[nH]2)cc1 [Example 460, N-((1S,4r)-4-((S)-3-isopropylmorpholine-4-carbonyl)cyclohexyl)-2-(4-(2-methoxyethyl)phenyl)-1H-indole-6-sulfonamide] | < 10 nM
15 | COCCc1ccc(-c2[nH]c3cc(S(=O)(=O)N[C@H]4CC[C@H](C(=O)N5CCOC[C@@H]5C(C)C)CC4)ccc3c2Cl)cc1 [Example 461, 3-chloro-N-((1S,4r)-4-((S)-3-isopropylmorpholine-4-carbonyl)cyclohexyl)-2-(4-(2-methoxyethyl)phenyl)-1H-indole-6-sulfonamide] | < 10 nM
16 | C[C@H]1COCCN1C(=O)[C@H]1CC[C@H](NS(=O)(=O)c2ccc3cc(-c4ccccc4)[nH]c3c2)CC1 [Example 462, N-((1S,4r)-4-((S)-3-methylmorpholine-4-carbonyl)cyclohexyl)-2-phenyl-1H-indole-6-sulfonamide] | 15 nM
17 | CC(C)[C@H]1COCCN1C(=O)[C@H]1CC[C@H](NS(=O)(=O)c2ccc3cc(-c4ccccc4)[nH]c3c2)CC1 [Example 463, N-((1S,4r)-4-((S)-3-isopropylmorpholine-4-carbonyl)cyclohexyl)-2-phenyl-1H-indole-6-sulfonamide] | < 10 nM
18 | CC1(C)CN(C(=O)[C@H]2CC[C@H](NS(=O)(=O)c3ccc4cc(-c5ccccc5)[nH]c4c3)CC2)CCO1 [Example 464, N-((1r,4r)-4-(2,2-dimethylmorpholine-4-carbonyl)cyclohexyl)-2-phenyl-1H-indole-6-sulfonamide] | 30 nM
19 | CC(C)(O)[C@H]1CCCN1C(=O)[C@H]1CC[C@H](NS(=O)(=O)c2ccc3cc(-c4ccccc4)[nH]c3c2)CC1 [Example 465, N-((1R,4r)-4-((R)-2-(2-hydroxypropan-2-yl)pyrrolidine-1-carbonyl)cyclohexyl)-2-phenyl-1H-indole-6-sulfonamide] | 20 nM
20 | O=C1NCCCCC1NC(=O)[C@H]1CC[C@H](NS(=O)(=O)c2ccc3cc(-c4ccccc4)[nH]c3c2)CC1 (stereo partly shown) [Example 466, (1r,4r)-N-(2-oxoazepan-3-yl)-4-(2-phenyl-1H-indole-6-sulfonamido)cyclohexanecarboxamide] | 10 nM
21 | C[C@H]1COCCN1C(=O)[C@H]1CC[C@H](NS(=O)(=O)c2ccc3c(Cl)c(-c4ccccc4)[nH]c3c2)CC1 [Example 467, 3-chloro-N-((1S,4r)-4-((S)-3-methylmorpholine-4-carbonyl)cyclohexyl)-2-phenyl-1H-indole-6-sulfonamide] | < 10 nM
22 | CC(C)[C@H]1COCCN1C(=O)[C@H]1CC[C@H](NS(=O)(=O)c2ccc3c(Cl)c(-c4ccccc4)[nH]c3c2)CC1 [Example 468, 3-chloro-N-((1S,4r)-4-((S)-3-isopropylmorpholine-4-carbonyl)cyclohexyl)-2-phenyl-1H-indole-6-sulfonamide] | < 10 nM
23 | CC1(C)CN(C(=O)[C@H]2CC[C@H](NS(=O)(=O)c3ccc4c(Cl)c(-c5ccccc5)[nH]c4c3)CC2)CCO1 [Example 469, 3-chloro-N-((1r,4r)-4-(2,2-dimethylmorpholine-4-carbonyl)cyclohexyl)-2-phenyl-1H-indole-6-sulfonamide] | 90 nM
24 | COCCc1ccc(-c2cc3ccc(S(=O)(=O)N[C@H]4CC[C@H](C(=O)N5CCOC[C@@H]5C5CC5)CC4)cc3[nH]2)cc1 [Example 470, N-((1S,4r)-4-((S)-3-cyclopropylmorpholine-4-carbonyl)cyclohexyl)-2-(4-(2-methoxyethyl)phenyl)-1H-indole-6-sulfonamide] | < 10 nM
25 | COCCc1ccc(-c2[nH]c3cc(S(=O)(=O)N[C@H]4CC[C@H](C(=O)N5CCOC[C@@H]5C5CC5)CC4)ccc3c2Cl)cc1 [Example 471, 3-chloro-N-((1S,4r)-4-((S)-3-cyclopropylmorpholine-4-carbonyl)cyclohexyl)-2-(4-(2-methoxyethyl)phenyl)-1H-indole-6-sulfonamide] | < 10 nM
26 | O=C([C@H]1CC[C@H](NS(=O)(=O)c2ccc3cc(-c4ccccc4)[nH]c3c2)CC1)N1CCOC[C@@H]1C1CC1 [Example 472, N-((1S,4r)-4-((S)-3-cyclopropylmorpholine-4-carbonyl)cyclohexyl)-2-phenyl-1H-indole-6-sulfonamide] | < 10 nM
27 | C[C@@H]1CN(C(=O)[C@H]2CC[C@H](NS(=O)(=O)c3ccc4cc(-c5ccccc5)[nH]c4c3)CC2)C[C@H](C)O1 [Example 475, N-((1R,4r)-4-((2S,6R)-2,6-dimethylmorpholine-4-carbonyl)cyclohexyl)-2-phenyl-1H-indole-6-sulfonamide] | 15 nM
28 | Cn1c(-c2ccc(CCC(=O)O)cc2)cc2ccc(S(=O)(=O)N[C@H]3CC[C@H](C(=O)N4CCOC[C@@H]4C4CC4)CC3)cc21 [Example 476, 3-(4-(6-(N-((1S,4r)-4-((S)-3-cyclopropylmorpholine-4-carbonyl)cyclohexyl)sulfamoyl)-1-methyl-1H-indol-2-yl)phenyl)propanoic acid] | < 10 nM
